IC50 and inhibition in vivo data for 8 compounds are collected here from patent EP1019392B1, “TRICYCLIC AMIDES USEFUL FOR INHIBITION OF G-PROTEIN FUNCTION AND FOR TREATMENT OF PROLIFERATIVE DISEASES” (SCHERING CORPORATION, priority 1995, dated 1997).

Structures are written as SMILES. Like-named read-outs stand apart in the source and are kept apart here.

For experiment [1], the system named is DLD-1-BAG human colon carcinoma cells expressing as activated K-ras gene. The experiment is described as follows: Cell Mat Assay, DLD-1 tumor cells. The format is cell-based.
Experiment [2] relates to SW620-BAG human colon carcinoma cells expressing an activated K-ras gene. The experiment is described as follows: Cell Mat Assay, SW620 tumor cells. It is filed as cell-based.
For experiment [3], the system named is Normal human HEPM fibroblasts. The experiment is described as follows: Cell Mat Assay, normal cell mat. The format is cell-based. Conditions: normal monolayer.
The target in experiment [4] is T1, farnesyl protein transferase (FPT) (Rattus norvegicus, UniProt Q02293+Q04631).
T1 construct: were partially purified from rat brain by ammonium sulfate fractionation followed by Q-Sepharose; from tissue; host or cells: rat brain
The experiment is described as follows: In vitro enzyme assay: inhibition of farnesyl protein transferase (transfer of [3H]farnesyl to Ras-CVLS). It is filed as biochemical. The following applies: partially purified rat brain FPT, Ras-CVLS. As for the experimental part:
• 1. In vitro enzyme assays: Inhibition of farnesyl protein transferase and geranylgeranyl protein transferase. […] Human farnesyl protein transferase was also expressed in E. coli, using cDNA clones encoding both the a and b subunits. […] Human farnesyl protein transferase was partially-purified from the soluble protein fraction of E. coli as described above. […] Two forms of val^12-Ha-Ras protein were prepared as substrates for these enzymes, differing in their carboxy terminal sequence. One form terminated in cysteine-valine-leucine-serine (Ras-CVLS) the other in cystein-valine-leucine-leucine (Ras-CVLL). Ras-CVLS is a substrate for the farnesyl protein transferase while Ras-CVLL is a substrate for geranylgeranyl protein transferase I. The cDNAs encoding these proteins were constructed so that the proteins contain an amino-terminal extension of 6 histidine residues. Both proteins were expressed in Escherichia coli and purified using metal chelate affinity chromatography. The radiolabelled isoprenyl pyrophosphate substrates, [^3H]farnesyl pyrophosphate and [^3H]geranylgeranyl pyrophosphate, were purchased from DuPont/New England Nuclear. […] The reaction was allowed to proceed for 30 minutes at room temperature and then stopped with 0.5 ml of 4% sodium dodecyl sulfate (SDS) followed by 0.5 ml of cold 30% TCA. Samples were allowed to sit on ice for 45 minutes and precipitated Ras protein was then collected on GF/C filter paper mats using a Brandel cell harvester. […] Percent inhibition was calculated relative to the DMSO vehicle control. The geranylgeranyl protein transferase I assay was essentially identical to the farnesyl protein transferase assay described above, with two exceptions: [^3H]geranylgeranylpyrophosphate replaced farnesyl pyrophosphate as the isoprenoid donor and Ras-CVLL was the protein acceptor. […] Cell-Based Assay: Transient expression of val^12-Ha-Ras-CVLS and val^12-Ha-Ras-CVLL in COS monkey kidney cells: Effect of farnesyl protein transferase inhibitors on Ras processing and on disordered cell growth induced by transforming Ras. COS monkey kidney cells were transfected by electroporation with the plasmid pSV-SPORT (Gibco/BRL) containing a cDNA insert encoding either Ras-CVLS or Ras-CVLL, leading to transient overexpression of a Ras substrate for either farnesyl protein transferase or geranylgeranyl protein transferase I, respectively (see above). Following electroporation, cells were plated into 6-well tissue culture dishes containing 1.5 ml of Dulbecco's-modified Eagle's media (GIBCO, Inc.) supplemented with 10% fetal calf serum and the appropriate farnesyl protein transferase inhibitors. After 24 hours, media was removed and fresh media containing the appropriate drugs was re-added. 48 hours after electroporation cells were examined under the microscope to monitor disordered cell growth induced by transforming Ras. Cells expressing transforming Ras become more rounded and refractile and overgrow the monolayer, reminiscent of the transformed phenotype. Cells were then photographed, washed twice with 1 ml of cold phosphate-buffered saline (PBS) and removed from the dish by scraping with a rubber policeman into 1 ml of a buffer containing 25 mM Tris, pH 8.0; 1 mM ethylenediamine tetraacetic acid; 1 mM phenylmethylsulfonyl fluoride; […] leupeptin; and 0.1 mM pepstatin. Cells were lysed by homogenization and cell debris was removed by centrifugation at 2000 x g for 10 min. Cellular protein was precipitated by addition of ice-cold trichloroacetic acid and redissolved in […] of SDS-electrophoresis sample buffer. […] Proteins resolved on the gels were electroblotted onto nitrocellulose membranes for immunodetection. […] After washing, membranes were incubated for one hour at room temperature with a 1:5000 dilution of secondary antibody, rabbit anti-rat IgG conjugated to horseradish peroxidase, in PBS containing 1% fetal calf serum.

The subject of experiment [5] is Ras-CVLS processing in COS monkey kidney cells. Nature of the experiment: COS cell assay: inhibition of Ras-CVLS processing (Western blot). The format is cell-based. The source says: • 1. In vitro enzyme assays: Inhibition of farnesyl protein transferase and geranylgeranyl protein transferase. Both farnesyl protein transferase (FPT) and geranylgeranyl protein transferase (GGPT) I were partially purified from rat brain by ammonium sulfate fractionation followed by Q-Sepharose (Pharmacia, Inc.) anion exchange chromatography essentially as described by Yokoyama et al (Yokoyama, K., et al., (1991), A protein geranylgeranyltransferase from bovine brain: Implications for protein prenylation specificity, Proc. Natl. Acad. Sci USA 88: 5302-5306, the disclosure of which is incorporated herein by reference thereto). Human farnesyl protein transferase was also expressed in E. coli, using cDNA clones encoding both the a and b subunits. The methods used were similar to those published (Omer, C. et al., (1993), Characterization of recombinant human farnesyl protein transferase: Cloning, expression, farnesyl diphosphate binding, and functional homology with yeast prenyl-protein transferases, Biochemistry 32:5167-5176). Human farnesyl protein transferase was partially-purified from the soluble protein fraction of E. coli as described above. […] Two forms of val^12-Ha-Ras protein were prepared as substrates for these enzymes, differing in their carboxy terminal sequence. One form terminated in cysteine-valine-leucine-serine (Ras-CVLS) the other in cystein-valine-leucine-leucine (Ras-CVLL). Ras-CVLS is a substrate for the farnesyl protein transferase while Ras-CVLL is a substrate for geranylgeranyl protein transferase I. The cDNAs encoding these proteins were constructed so that the proteins contain an amino-terminal extension of 6 histidine residues. Both proteins were expressed in Escherichia coli and purified using metal chelate affinity chromatography. The radiolabelled isoprenyl pyrophosphate substrates, [^3H]farnesyl pyrophosphate and [^3H]geranylgeranyl pyrophosphate, were purchased from DuPont/New England Nuclear. Several methods for measuring farnesyl protein transferase activity have been described (Reiss et al 1990, Cell 62: 81; Schaber et al 1990, J. Biol. Chem. 265: 14701; Manne et al 1990, PNAS 87: 7541; and Barbacid & Manne 1993, U.S. Patent No. 5,185,248). […] The reaction was allowed to proceed for 30 minutes at room temperature and then stopped with 0.5 ml of 4% sodium dodecyl sulfate (SDS) followed by 0.5 ml of cold 30% TCA. Samples were allowed to sit on ice for 45 minutes and precipitated Ras protein was then collected on GF/C filter paper mats using a Brandel cell harvester. Filter mats were washed once with 6% TCA, 2% SDS and radioactivity was measured in a Wallac 1204 Betaplate BS liquid scintillation counter. Percent inhibition was calculated relative to the DMSO vehicle control. The geranylgeranyl protein transferase I assay was essentially identical to the farnesyl protein transferase assay described above, with two exceptions: [^3H]geranylgeranylpyrophosphate replaced farnesyl pyrophosphate as the isoprenoid donor and Ras-CVLL was the protein acceptor. […] Cell-Based Assay: Transient expression of val^12-Ha-Ras-CVLS and val^12-Ha-Ras-CVLL in COS monkey kidney cells: Effect of farnesyl protein transferase inhibitors on Ras processing and on disordered cell growth induced by transforming Ras. COS monkey kidney cells were transfected by electroporation with the plasmid pSV-SPORT (Gibco/BRL) containing a cDNA insert encoding either Ras-CVLS or Ras-CVLL, leading to transient overexpression of a Ras substrate for either farnesyl protein transferase or geranylgeranyl protein transferase I, respectively (see above). Following electroporation, cells were plated into 6-well tissue culture dishes containing 1.5 ml of Dulbecco's-modified Eagle's media (GIBCO, Inc.) supplemented with 10% fetal calf serum and the appropriate farnesyl protein transferase inhibitors. After 24 hours, media was removed and fresh media containing the appropriate drugs was re-added.

For experiment [6], the system named is T24-BAG4 human bladder carcinoma cells expressing an activated H-ras gene. The experiment is described as follows: Cell Mat Assay, T24 tumor cells. It is filed as cell-based. The following applies: read-out: Tumor (T-24) IC50.
For experiment [7], the system named is DLD-1 (human colon carcinoma cells, ATCC # CCL 221). The experiment is described as follows: In Vivo Anti-Tumor Studies, subcutaneous DLD-1 tumors. Conditions: Mus musculus, DLD-1, po, QID, 4 weeks, range over the listed compounds. More on the design: species or system athymic nu/nu female mice. The source says:
Tumor cells (5 X 10^5 to 8 X 10^6) of DLD-1 (human colon carcinoma cells, ATCC # CCL 221) are innolculated subcutaneously into the flank of 5-6 week o;d athymic nu/nu female mice.

The mark [8] stands for this setting: Homo sapiens, SW-620, Mat assay.

On to `NC(=O)N1CCC(CC(=O)N2CCC(=C3c4ccc(Cl)c(Br)c4CCc4cc(Br)cnc43)CC2)CC1` (racemic) [Example 15], for which the IC50 in experiment [1] (Homo sapiens, DLD-1, Mat assay) is 6.25 µM; in experiment [2] (setting [8]) it was > 6.25 µM; in experiment [3] (Homo sapiens, Fibroblast), > 25 µM; in experiment [4] (Table 1, read-out: FPT IC50) it was 0.022 µM; in experiment [5] (Primates, COS) it was 0.6 µM; in experiment [6] (Homo sapiens) it was 3.1 µM.
For the compound `NC(=O)N1CCC(CC(=O)N2CCN([C@H]3c4ccc(Cl)cc4CCc4cc(Br)cnc43)CC2)CC1` [Example 17A], the IC50 in experiment [1] (Homo sapiens, DLD-1, Mat assay) was 4 µM; in experiment [2] (setting [8]), 18 µM; in experiment [3] (Homo sapiens, Fibroblast), > 25 µM; in experiment [4] (Table 1, read-out: FPT IC50) it was 0.048 µM; in experiment [5] (Primates, COS) it was 0.5 µM; in experiment [6] (Homo sapiens) it was 3.1 µM.
For the compound `NC(=O)N1CCC(CC(=O)N2CCN(C3c4ncc(Br)cc4CCc4cc(Cl)cc(Br)c43)CC2)CC1` (single isomer, unassigned) [Example 12A], the IC50 in experiment [1] (Homo sapiens, DLD-1, Mat assay) was 2 µM; in experiment [2] (setting [8]), 4 µM; in experiment [3] (Homo sapiens, Fibroblast), > 25 µM; in experiment [4] (FPT IC50, Table 1) it was > 0.094 µM; in experiment [5] it was 0.95 µM; in experiment [6] (Homo sapiens), < 1.6 µM.
On to `NC(=O)N1CCC(CC(=O)N2CCC(=C3c4ncc(Br)cc4CCc4cc(Cl)cc(Br)c43)CC2)CC1` (racemic) [Example 8], for which the concentration for half-maximal inhibition (IC50) in experiment [1] (Homo sapiens, DLD-1, Mat assay) is 3.1 µM; in experiment [2] (setting [8]), 3.1 µM; in experiment [3] (Homo sapiens, Fibroblast), > 25 µM; in experiment [5] (Primates, COS) it was < 0.25 µM; in experiment [6] (Homo sapiens), < 1.6 µM.
In the case of `O=C(Cc1cc[n+]([O-])cc1)N1CCN(C2c3ncc(Br)cc3CCc3cc(Cl)cc(Cl)c32)CC1` (single isomer, unassigned) [Example 19], the IC50 is < 1.6 µM in experiment [1] (Homo sapiens, DLD-1, Mat assay); 6.25 µM in experiment [2] (setting [8]); > 25 µM in experiment [3] (Homo sapiens, Fibroblast); < 0.0038 µM in experiment [4] (Table 1, read-out: FPT IC50); < 1.6 µM in experiment [6] (Homo sapiens).
Consider `NC(=O)N1CCC(CC(=O)N2CCC(=C3c4ncc(Br)cc4CCc4cc(Cl)cc(Br)c43)CC2)CC1` (single isomer, unassigned) [Example 8A], for which the IC50 is < 1.6 µM in experiment [1] (Homo sapiens, DLD-1, Mat assay); 3.1 µM in experiment [2] (setting [8]); > 25 µM in experiment [3] (Homo sapiens, Fibroblast); > 1 µM in experiment [5]; < 1.6 µM in experiment [6] (Homo sapiens).
Consider `O=C(Cc1cc[n+]([O-])cc1)N1CCC(C2c3ccc(Cl)c(Br)c3CCc3cc(Br)cnc32)CC1` (single isomer, unassigned) [Example 14], for which the half-inhibitory concentration (IC50) in experiment [1] (Mat assay) was 6.25 µM; in experiment [2] (Mat assay), > 12.5 µM; in experiment [3], > 25 µM; in experiment [4] (Table 1, read-out: FPT IC50), 0.062 µM; in experiment [5], > 1 µM; in experiment [6], < 1.6 µM.
`NC(=O)N1CCC(CC(=O)N2CCN(C3c4ncc(Br)cc4CCc4cc(Cl)cc(Br)c43)CC2)CC1` (single isomer, unassigned) [Example 12B] showed an inhibition in vivo at 10 mg/kg in experiment [7] (10 mg/kg p.o.) of 7 to 50%. The compound further registered an inhibition in vivo at 50 mg/kg in experiment [7] (50 mg/kg p.o.) of 35.4 to 83%. For the same compound, the IC50 was 3.1 µM in experiment [1] (Mat assay); 6.25 µM in experiment [2] (Mat assay); > 25 µM in experiment [3]; 0.0025 µM in experiment [4] (FPT IC50, Table 1); < 0.025 µM in experiment [5]; < 1.6 µM in experiment [6].
